Test results as given in the kinase profiling compilation of Christmann-Franck et al. (2016).
Several values for one entry are separate records, joined by “and”; a condition that tells them apart may be missing. Identical values can stand only once.

Columns and labels:
Assay in all cases: radiometric filter-binding kinase assay, Kinase HotSpot
Settings in all cases: compound 0.5 µM; ATP 10 µM
LIMK1 (human) = LIMK1 (human) (UniProt P53667)
RPS6KA6 KD1 KD2 (human) = RPS6KA6 KD1 KD2 (human) (UniProt Q9UK32)
CAMK1G (human) = CAMK1G (human) (UniProt Q96NX5)
PDGFRA (human) = PDGFRA (human) (UniProt P16234)
ADRBK2 (human) = ADRBK2 (human) (UniProt P35626)
NEK3 (human) = NEK3 (human) (UniProt P51956)
TEC (human) = TEC (human) (UniProt P42680)
CDC42BPA (human) = CDC42BPA (human) (UniProt Q5VT25)
DSTYK (human) = DSTYK (human) (UniProt Q6XUX3)
MET (human) = MET (human) (UniProt P08581)
PTK2 (human) = PTK2 (human) (UniProt Q05397)
ABL1 (human) = ABL1 (human) (UniProt P00519)
TSSK2 (human) = TSSK2 (human) (UniProt Q96PF2)
LYN (human) = LYN (human) (UniProt P07948)
TGFBR1 (human) = TGFBR1 (human) (UniProt P36897)
FGFR4 (human) = FGFR4 (human) (UniProt P22455)
DYRK2 (human) = DYRK2 (human) (UniProt Q92630)
DAPK2 (human) = DAPK2 (human) (UniProt Q9UIK4)
CHEK1 (human) = CHEK1 (human) (UniProt O14757)
PHKG1 (human) = PHKG1 (human) (UniProt Q16816)
PRKCD (human) = PRKCD (human) (UniProt Q05655)
EPHA6 (human) = EPHA6 (human) (UniProt Q9UF33)
MAP3K9 (human) = MAP3K9 (human) (UniProt P80192)
ADRBK1 (human) = ADRBK1 (human) (UniProt P25098)
SRMS (human) = SRMS (human) (UniProt Q9H3Y6)
NEK9 (human) = NEK9 (human) (UniProt Q8TD19)
BRAF (human) = BRAF (human) (UniProt P15056)
RAF1 (human) = RAF1 (human) (UniProt P04049)
NUAK2 (human) = NUAK2 (human) (UniProt Q9H093)
STK25 (human) = STK25 (human) (UniProt O00506)
STK16 (human) = STK16 (human) (UniProt O75716)
TLK2 (human) = TLK2 (human) (UniProt Q86UE8)
NEK6 (human) = NEK6 (human) (UniProt Q9HC98)
EPHB4 (human) = EPHB4 (human) (UniProt P54760)
CDC42BPB (human) = CDC42BPB (human) (UniProt Q9Y5S2)
IRAK4 (human) = IRAK4 (human) (UniProt Q9NWZ3)
ACVR1 (human) = ACVR1 (human) (UniProt Q04771)
IGF1R (human) = IGF1R (human) (UniProt P08069)
PHKG2 (human) = PHKG2 (human) (UniProt P15735)
EPHB3 (human) = EPHB3 (human) (UniProt P54753)

Sequence of LYN (human) (P07948 whole entry, looked up): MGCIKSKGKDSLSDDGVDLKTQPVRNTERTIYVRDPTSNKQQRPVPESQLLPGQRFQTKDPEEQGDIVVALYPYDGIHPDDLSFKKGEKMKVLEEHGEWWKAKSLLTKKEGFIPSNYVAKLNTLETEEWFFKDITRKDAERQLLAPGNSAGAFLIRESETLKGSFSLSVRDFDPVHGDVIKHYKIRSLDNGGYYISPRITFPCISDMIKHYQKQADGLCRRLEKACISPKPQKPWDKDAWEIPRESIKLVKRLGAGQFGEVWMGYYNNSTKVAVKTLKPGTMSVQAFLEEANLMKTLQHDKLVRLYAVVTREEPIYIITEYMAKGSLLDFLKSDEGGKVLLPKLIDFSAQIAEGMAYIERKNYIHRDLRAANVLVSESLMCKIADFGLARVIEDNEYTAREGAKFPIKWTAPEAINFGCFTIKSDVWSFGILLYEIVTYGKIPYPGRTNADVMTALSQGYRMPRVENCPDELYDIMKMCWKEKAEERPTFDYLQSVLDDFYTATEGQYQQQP
Sequence of TGFBR1 (human) (P36897 whole entry, looked up): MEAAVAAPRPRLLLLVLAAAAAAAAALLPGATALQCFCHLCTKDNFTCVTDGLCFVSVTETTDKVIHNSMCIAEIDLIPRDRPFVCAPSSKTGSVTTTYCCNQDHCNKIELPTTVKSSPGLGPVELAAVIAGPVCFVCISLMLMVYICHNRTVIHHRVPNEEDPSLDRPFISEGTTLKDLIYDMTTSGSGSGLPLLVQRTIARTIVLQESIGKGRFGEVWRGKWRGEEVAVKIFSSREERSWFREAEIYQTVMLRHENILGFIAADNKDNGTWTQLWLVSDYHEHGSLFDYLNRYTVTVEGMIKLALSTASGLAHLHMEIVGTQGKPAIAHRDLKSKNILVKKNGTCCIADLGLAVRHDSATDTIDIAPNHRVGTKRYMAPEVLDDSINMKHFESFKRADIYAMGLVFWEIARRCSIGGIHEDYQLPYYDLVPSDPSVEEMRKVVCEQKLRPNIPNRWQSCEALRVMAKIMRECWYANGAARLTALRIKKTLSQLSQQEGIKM
Sequence of CDC42BPA (human) (Q5VT25 whole entry, looked up): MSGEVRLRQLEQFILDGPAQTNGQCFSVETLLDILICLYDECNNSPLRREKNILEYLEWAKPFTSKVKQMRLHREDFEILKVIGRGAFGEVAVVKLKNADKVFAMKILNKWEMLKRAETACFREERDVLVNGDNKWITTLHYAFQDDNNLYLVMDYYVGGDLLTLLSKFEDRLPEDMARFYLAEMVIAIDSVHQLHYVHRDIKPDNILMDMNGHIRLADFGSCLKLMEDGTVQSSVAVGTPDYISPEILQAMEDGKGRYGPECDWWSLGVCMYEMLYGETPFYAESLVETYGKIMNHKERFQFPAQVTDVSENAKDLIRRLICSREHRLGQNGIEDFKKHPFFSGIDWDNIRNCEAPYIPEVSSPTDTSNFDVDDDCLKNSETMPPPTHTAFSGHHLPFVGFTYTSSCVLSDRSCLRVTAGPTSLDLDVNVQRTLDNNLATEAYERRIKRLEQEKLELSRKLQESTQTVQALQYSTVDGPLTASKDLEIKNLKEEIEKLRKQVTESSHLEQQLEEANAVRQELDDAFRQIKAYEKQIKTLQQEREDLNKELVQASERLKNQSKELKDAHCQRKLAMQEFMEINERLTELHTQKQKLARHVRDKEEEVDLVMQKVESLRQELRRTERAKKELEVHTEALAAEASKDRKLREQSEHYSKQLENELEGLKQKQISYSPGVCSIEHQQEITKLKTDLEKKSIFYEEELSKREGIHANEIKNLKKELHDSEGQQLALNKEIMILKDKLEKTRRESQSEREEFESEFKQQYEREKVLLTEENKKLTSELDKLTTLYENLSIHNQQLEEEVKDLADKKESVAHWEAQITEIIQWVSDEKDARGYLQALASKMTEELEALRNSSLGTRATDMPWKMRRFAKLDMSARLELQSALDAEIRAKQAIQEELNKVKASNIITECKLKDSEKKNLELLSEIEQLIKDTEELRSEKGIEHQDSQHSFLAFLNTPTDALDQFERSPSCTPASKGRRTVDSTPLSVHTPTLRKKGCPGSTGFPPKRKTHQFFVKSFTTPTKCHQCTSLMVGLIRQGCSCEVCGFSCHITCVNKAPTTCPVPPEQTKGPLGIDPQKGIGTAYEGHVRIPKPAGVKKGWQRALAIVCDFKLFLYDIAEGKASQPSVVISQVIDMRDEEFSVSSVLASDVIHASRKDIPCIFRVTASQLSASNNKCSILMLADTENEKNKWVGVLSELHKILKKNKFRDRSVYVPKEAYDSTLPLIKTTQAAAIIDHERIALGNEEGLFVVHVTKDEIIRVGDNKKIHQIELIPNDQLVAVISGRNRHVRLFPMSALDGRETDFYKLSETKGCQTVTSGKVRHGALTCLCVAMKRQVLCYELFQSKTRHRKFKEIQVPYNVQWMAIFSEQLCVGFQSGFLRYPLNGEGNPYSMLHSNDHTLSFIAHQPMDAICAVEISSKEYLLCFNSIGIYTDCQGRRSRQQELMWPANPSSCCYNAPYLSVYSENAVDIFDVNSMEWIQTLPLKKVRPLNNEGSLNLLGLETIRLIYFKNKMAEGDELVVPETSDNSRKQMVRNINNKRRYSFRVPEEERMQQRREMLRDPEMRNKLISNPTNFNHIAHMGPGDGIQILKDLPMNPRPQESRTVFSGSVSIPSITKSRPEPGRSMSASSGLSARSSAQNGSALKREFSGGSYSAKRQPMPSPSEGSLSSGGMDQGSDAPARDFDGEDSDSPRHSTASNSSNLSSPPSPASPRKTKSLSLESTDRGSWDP
Sequence of DYRK2 (human) (Q92630 whole entry, looked up): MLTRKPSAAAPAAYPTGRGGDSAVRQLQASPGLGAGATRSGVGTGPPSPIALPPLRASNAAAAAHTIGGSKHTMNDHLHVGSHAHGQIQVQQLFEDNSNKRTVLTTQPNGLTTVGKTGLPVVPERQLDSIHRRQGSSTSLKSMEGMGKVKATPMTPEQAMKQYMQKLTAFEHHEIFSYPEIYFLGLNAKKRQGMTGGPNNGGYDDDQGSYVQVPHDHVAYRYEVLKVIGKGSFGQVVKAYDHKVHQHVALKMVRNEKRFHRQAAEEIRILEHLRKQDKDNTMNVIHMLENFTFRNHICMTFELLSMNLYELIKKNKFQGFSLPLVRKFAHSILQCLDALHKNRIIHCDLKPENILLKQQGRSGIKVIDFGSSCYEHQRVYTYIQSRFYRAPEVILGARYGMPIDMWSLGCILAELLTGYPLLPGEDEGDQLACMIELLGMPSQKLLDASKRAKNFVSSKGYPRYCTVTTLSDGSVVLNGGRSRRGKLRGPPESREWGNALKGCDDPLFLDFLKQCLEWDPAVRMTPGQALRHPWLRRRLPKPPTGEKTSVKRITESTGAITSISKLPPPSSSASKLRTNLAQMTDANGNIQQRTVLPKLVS
Sequence of ABL1 (human) (P00519 whole entry, looked up): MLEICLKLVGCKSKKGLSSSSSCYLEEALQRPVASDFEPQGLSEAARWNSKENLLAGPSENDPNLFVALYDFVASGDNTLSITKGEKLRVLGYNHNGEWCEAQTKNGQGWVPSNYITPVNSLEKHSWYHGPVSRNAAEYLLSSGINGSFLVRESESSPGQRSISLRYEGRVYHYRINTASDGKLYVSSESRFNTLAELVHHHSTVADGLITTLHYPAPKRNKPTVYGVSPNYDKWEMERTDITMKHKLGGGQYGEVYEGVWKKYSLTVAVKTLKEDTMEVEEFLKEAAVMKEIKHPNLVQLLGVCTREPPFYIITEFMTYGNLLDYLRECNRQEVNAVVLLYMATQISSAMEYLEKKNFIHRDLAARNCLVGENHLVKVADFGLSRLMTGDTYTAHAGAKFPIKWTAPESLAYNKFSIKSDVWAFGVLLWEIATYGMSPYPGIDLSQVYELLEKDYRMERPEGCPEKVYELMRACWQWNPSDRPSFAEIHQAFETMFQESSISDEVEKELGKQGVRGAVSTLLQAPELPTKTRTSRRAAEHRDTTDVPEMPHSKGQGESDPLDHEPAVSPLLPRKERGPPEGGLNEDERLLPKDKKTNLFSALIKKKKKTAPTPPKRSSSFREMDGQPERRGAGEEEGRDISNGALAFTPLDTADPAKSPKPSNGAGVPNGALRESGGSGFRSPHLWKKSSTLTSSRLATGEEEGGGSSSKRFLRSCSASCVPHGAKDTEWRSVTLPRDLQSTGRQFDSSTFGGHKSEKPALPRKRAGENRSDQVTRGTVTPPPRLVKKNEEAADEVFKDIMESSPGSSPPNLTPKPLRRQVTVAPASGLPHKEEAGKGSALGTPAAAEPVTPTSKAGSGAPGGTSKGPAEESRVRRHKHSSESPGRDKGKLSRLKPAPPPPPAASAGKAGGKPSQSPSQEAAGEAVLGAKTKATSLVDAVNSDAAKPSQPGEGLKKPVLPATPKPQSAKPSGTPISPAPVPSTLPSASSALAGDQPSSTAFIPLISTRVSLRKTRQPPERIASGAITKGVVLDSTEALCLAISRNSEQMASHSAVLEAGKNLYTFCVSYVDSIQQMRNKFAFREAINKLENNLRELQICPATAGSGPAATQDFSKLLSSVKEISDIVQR
Sequence of STK16 (human) (O75716 whole entry, looked up): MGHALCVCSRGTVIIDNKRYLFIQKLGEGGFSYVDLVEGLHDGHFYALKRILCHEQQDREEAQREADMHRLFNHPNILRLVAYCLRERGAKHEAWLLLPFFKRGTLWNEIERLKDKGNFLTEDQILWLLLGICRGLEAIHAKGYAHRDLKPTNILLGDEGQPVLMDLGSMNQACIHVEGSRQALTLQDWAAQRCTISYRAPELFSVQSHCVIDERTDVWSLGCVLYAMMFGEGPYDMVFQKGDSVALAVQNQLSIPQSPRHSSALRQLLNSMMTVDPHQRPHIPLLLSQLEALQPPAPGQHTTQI

CC(C)N(CCC(=O)c1ccc2ccccc2c1)Cc1ccccc1
residual activity (LIMK1 (human)): 103%
residual activity (RPS6KA6 KD1 KD2 (human)): 97.4%
residual activity (CAMK1G (human)): 95.1%
residual activity (PDGFRA (human)): 96.5%
residual activity (ADRBK2 (human)): 88.9%
residual activity (NEK3 (human)): 101%
residual activity (TEC (human)): 115%
residual activity (CDC42BPA (human)): 99.4%
residual activity (DSTYK (human)): 84.9%
residual activity (MET (human)): 110%
residual activity (PTK2 (human)): 96.3%
residual activity (ABL1 (human)): 101%
residual activity (TSSK2 (human)): 100%
residual activity (LYN (human)): 89.3% and 98.8%
residual activity (TGFBR1 (human)): 92.5%
residual activity (FGFR4 (human)): 103%
residual activity (DYRK2 (human)): 118%
residual activity (DAPK2 (human)): 99.6%
residual activity (CHEK1 (human)): 106%
residual activity (PHKG1 (human)): 91.6%
residual activity (PRKCD (human)): 94%
residual activity (EPHA6 (human)): 93.3%
residual activity (MAP3K9 (human)): 104%
residual activity (ADRBK1 (human)): 106%
residual activity (SRMS (human)): 103%
residual activity (NEK9 (human)): 96.4%
residual activity (BRAF (human)): 95.6%
residual activity (RAF1 (human)): 87.3%
residual activity (NUAK2 (human)): 85.4%
residual activity (STK25 (human)): 94%
residual activity (STK16 (human)): 91.6%
residual activity (TLK2 (human)): 104%
residual activity (NEK6 (human)): 109%
residual activity (EPHB4 (human)): 102%
residual activity (CDC42BPB (human)): 95%
residual activity (IRAK4 (human)): 103%
residual activity (ACVR1 (human)): 93.6%
residual activity (IGF1R (human)): 107%
residual activity (PHKG2 (human)): 99.9%
residual activity (EPHB3 (human)): 88.5%

CCC(=O)Nc1ccc2ncnc(Nc3cccc(Br)c3)c2c1
residual activity (LIMK1 (human)): 88.7%
residual activity (RPS6KA6 KD1 KD2 (human)): 90.6%
residual activity (CAMK1G (human)): 92.1%
residual activity (PDGFRA (human)): 107%
residual activity (ADRBK2 (human)): 99.2%
residual activity (NEK3 (human)): 99.6%
residual activity (TEC (human)): 103%
residual activity (CDC42BPA (human)): 101%
residual activity (DSTYK (human)): 91.3%
residual activity (MET (human)): 103%
residual activity (PTK2 (human)): 99.4%
residual activity (ABL1 (human)): 98.9%
residual activity (TSSK2 (human)): 82.8%
residual activity (LYN (human)): 82.6% and 87.7%
residual activity (TGFBR1 (human)): 101%
residual activity (FGFR4 (human)): 95.2%
residual activity (DYRK2 (human)): 90.6%
residual activity (DAPK2 (human)): 121%
residual activity (CHEK1 (human)): 114%
residual activity (PHKG1 (human)): 92.4%
residual activity (PRKCD (human)): 93.8%
residual activity (EPHA6 (human)): 79.5%
residual activity (MAP3K9 (human)): 92.7%
residual activity (ADRBK1 (human)): 112%
residual activity (SRMS (human)): 99.4%
residual activity (NEK9 (human)): 105%
residual activity (BRAF (human)): 93%
residual activity (RAF1 (human)): 98.4%
residual activity (NUAK2 (human)): 77.4%
residual activity (STK25 (human)): 102%
residual activity (STK16 (human)): 99.6%
residual activity (TLK2 (human)): 104%
residual activity (NEK6 (human)): 105%
residual activity (EPHB4 (human)): 93.4%
residual activity (CDC42BPB (human)): 114%
residual activity (IRAK4 (human)): 79.8%
residual activity (ACVR1 (human)): 93.7%
residual activity (IGF1R (human)): 87.6%
residual activity (PHKG2 (human)): 109%
residual activity (EPHB3 (human)): 89.4%
